In brackets after ≈: the same amount, converted by molar mass.
Experiments:
[1] = Solubility ratio of prodrug versus parent drug; type: physicochemical
[2] = Time required for 50% release of parent drug in phosphate buffered saline (PBS) at 37 degrees Centigrade; type: ADME; conditions: buffer
[3] = Dissociation constant was determined; type: physicochemical

Row | Compound | solubility (physchem) [µg/mL] | Solubility ratio [1] | T1/2 [2] [min] | pKa [3]
1 | CC(C)(C)NC(=O)[C@H]1N(C(=O)[C@@H](O)[C@H](Cc2ccccc2)NC(=O)OCc2ccccc2)CSC1(C)C | 47 (≈ 89.1 µM) |  |  | 
2 | CC(C)(C)NC(=O)[C@H]1N(C(=O)[C@@H](O)[C@H](Cc2ccccc2)NC(=O)c2ccc(Cl)cc2)CSC1(C)C | 28 (≈ 52.6 µM) |  |  | 
3 | CC(C)(C)NC(=O)[C@H]1N(C(=O)[C@@H](O)[C@H](Cc2ccccc2)NC(=O)c2ccccc2)CSC1(C)C | 120 (≈ 241 µM) |  |  | 
4 | CC(C)(C)NC(=O)[C@H]1N(C(=O)[C@@H](O)[C@H](Cc2ccccc2)NC(=O)c2ccc([N+](=O)[O-])cc2)CSC1(C)C | 57 (≈ 105 µM) |  |  | 
5 | CC(C)(C)NC(=O)[C@H]1N(C(=O)[C@@H](OC(=O)c2ccc([N+](=O)[O-])cc2)[C@@H](N)Cc2ccccc2)CSC1(C)C.Cl | 13000 | 228 | 2.6 | 
6 | Cc1cccc(C)c1OCC(=O)O[C@H](C(=O)N1CSC(C)(C)[C@H]1C(=O)NC(C)(C)C)[C@@H](N)Cc1ccccc1.Cl | 13000 | 8666 | < 1 | 
7 | CC(C)(C)NC(=O)[C@H]1N(C(=O)[C@@H](OC(=O)OCc2ccccc2)[C@@H](N)Cc2ccccc2)CSC1(C)C.Cl | 21000 | 449 | < 1 | 3.2
8 | CC(C)(C)NC(=O)[C@H]1N(C(=O)[C@@H](OC(=O)c2ccc(Cl)cc2)[C@@H](N)Cc2ccccc2)CSC1(C)C.Cl | 4300 | 154 | 16 | 
9 | CC(C)(C)NC(=O)[C@H]1N(C(=O)[C@@H](OC(=O)Cc2ccccc2)[C@@H](N)Cc2ccccc2)CSC1(C)C.Cl | 33000 | 340 | 2.2 | 4.31
10 | CC(C)(C)NC(=O)[C@H]1N(C(=O)[C@@H](OC(=O)c2ccccc2)[C@@H](N)Cc2ccccc2)CSC1(C)C.Cl | 15000 | 125 | 30 | 4.2
11 | Cc1ccc(C(=O)O[C@H](C(=O)N2CSC(C)(C)[C@H]2C(=O)NC(C)(C)C)[C@@H](N)Cc2ccccc2)cc1.Cl | 6200 | 155 | 44 | 
12 | COc1ccc(C(=O)O[C@H](C(=O)N2CSC(C)(C)[C@H]2C(=O)NC(C)(C)C)[C@@H](N)Cc2ccccc2)cc1.Cl | 16000 | 211 | 67 | 
13 | CC(C)(C)NC(=O)[C@H]1N(C(=O)[C@@H](O)[C@H](Cc2ccccc2)NC(=O)Cc2ccccc2)CSC1(C)C | 97 (≈ 190 µM) |  |  | 
14 | COc1ccc(C(=O)N[C@@H](Cc2ccccc2)[C@H](O)C(=O)N2CSC(C)(C)[C@H]2C(=O)NC(C)(C)C)cc1 | 76 (≈ 144 µM) |  |  | 
